Reference: the supplement of paper PMC5908809

Tests used:
[1] = tested on: normal primary NK cells, pool 1 (3 donors) (IL-2 2.5 ng/mL); test: percent inhibition of viability; higher = more inhibition; conditions: 72 h
[2] = tested on: normal primary NK cells, pool 3 (3 donors) (IL-2 2.5 ng/mL); test: as above; conditions: 72 h
DERL-7 (IL-2 2.5 ng/mL) [3] = test: as above; conditions: 72 h
NK-92 (IL-2 2.5 ng/mL) [4] = test: as above; conditions: 72 h
YT (IL-2 2.5 ng/mL) [5] = test: as above; conditions: 72 h
[6] = tested on: normal primary NK cells, pool 2 (3 donors) (IL-2 2.5 ng/mL); test: as above; conditions: 72 h
IMC-1 (IL-2 20 ng/mL) [7] = test: as above; conditions: 72 h
SNK-6 (IL-2 2.5 ng/mL) [8] = test: as above; conditions: 72 h
[9] = tested on: normal primary NK cells, pool 1 (3 donors), resting (IL-2 0 ng/mL); test: as above; conditions: 72 h
KAI3 (IL-2 2.5 ng/mL) [10] = test: as above; conditions: 72 h
NK-YS (IL-2 2.5 ng/mL) [11] = test: as above; conditions: 72 h
NKL (IL-2 2.5 ng/mL) [12] = test: as above; conditions: 72 h
KHYG-1 (IL-2 2.5 ng/mL) [13] = test: as above; conditions: 72 h
[14] = tested on: normal NK cells expanded with K562-aAPC; test: as above; conditions: 72 h, IL-2 2.5 ng/mL
Procedure: (§1)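 Drug sensitivity and resistance testing on K562-aAPC-expanded normal NK cells: 5 concentrations (10-fold steps over a 10,000-fold range), 72 h at 37 °C, viability by CellTiter-Glo normalised to DMSO and benzethonium chloride controls; DSS from the fitted curve.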

[15] = tested on: normal NK cells expanded with K562-aAPC; test: drug sensitivity score (DSS) (DSS units); higher = more sensitive; extreme values may be limits of the assay; conditions: 72 h; IL-2 2.5 ng/mL
Procedure: as §1

[16] = tested on: normal primary NK cells, pool 1 (3 donors) (IL-2 2.5 ng/mL); test: as above; conditions: 72 h
[17] = tested on: normal primary NK cells, pool 3 (3 donors) (IL-2 2.5 ng/mL); test: as above; conditions: 72 h
DERL-7 (IL-2 2.5 ng/mL) [18] = test: as above; conditions: 72 h
NK-92 (IL-2 2.5 ng/mL) [19] = test: as above; conditions: 72 h
YT (IL-2 2.5 ng/mL) [20] = test: as above; conditions: 72 h
[21] = tested on: normal primary NK cells, pool 2 (3 donors) (IL-2 2.5 ng/mL); test: as above; conditions: 72 h
IMC-1 (IL-2 20 ng/mL) [22] = test: as above; conditions: 72 h
SNK-6 (IL-2 2.5 ng/mL) [23] = test: as above; conditions: 72 h
[24] = tested on: normal primary NK cells, pool 1 (3 donors), resting (IL-2 0 ng/mL); test: as above; conditions: 72 h
KAI3 (IL-2 2.5 ng/mL) [25] = test: as above; conditions: 72 h
NK-YS (IL-2 2.5 ng/mL) [26] = test: as above; conditions: 72 h
NKL (IL-2 2.5 ng/mL) [27] = test: as above; conditions: 72 h
KHYG-1 (IL-2 2.5 ng/mL) [28] = test: as above; conditions: 72 h

CC[C@@]1(O)C(=O)OCc2c1cc1n(c2=O)Cc2cc3ccccc3nc2-1 [Camptothecin] (max concentration tested 5000 nM)
percent inhibition of viability [%]
Conditions	0.5 nM	5 nM	50 nM	500 nM	5000 nM
DERL-7 (IL-2 2.5 ng/mL) [3]	1	20.8	97.7	92.9	100
IMC-1 (IL-2 20 ng/mL) [7]	-1.32	4.46	99.7	100	100
KAI3 (IL-2 2.5 ng/mL) [10]	11.5	49.2	86.9	62.4	97.2
KHYG-1 (IL-2 2.5 ng/mL) [13]	-0.47	50.6	101	102	99.9
NK-92 (IL-2 2.5 ng/mL) [4]	4.55	41.4	101	102	99.6
NK-YS (IL-2 2.5 ng/mL) [11]	0.45	66.1	93.3	87.5	100
NKL (IL-2 2.5 ng/mL) [12]	11.3	91.1	102	98.4	92.3
SNK-6 (IL-2 2.5 ng/mL) [8]	19.8	56.5	96.8	98	99.4
YT (IL-2 2.5 ng/mL) [5]	-3.33	5.46	90	100	99.6
[1]	-11.7	2.76	-4.81	19.9	41.6
[2]	0.98	3.16	10.9	36.9	60.6
[6]	-7.85	0.79	8.18	26.8	60.9
[9]	-1.99	11.5	-26.2	-25.7	-5.52
[14]	4.05	11.2	54.7	59.6	97.7

Conditions	drug sensitivity score
DERL-7 (IL-2 2.5 ng/mL) [18]	33.3
IMC-1 (IL-2 20 ng/mL) [22]	31
KAI3 (IL-2 2.5 ng/mL) [25]	36.2
KHYG-1 (IL-2 2.5 ng/mL) [28]	36.8
NK-92 (IL-2 2.5 ng/mL) [19]	35.6
NK-YS (IL-2 2.5 ng/mL) [26]	38.3
NKL (IL-2 2.5 ng/mL) [27]	43.1
SNK-6 (IL-2 2.5 ng/mL) [23]	37.5
YT (IL-2 2.5 ng/mL) [20]	29.5
[15]	19.8
[16]	4.65
[17]	8.23
[21]	6.31
[24]	0

COc1cc2c(Oc3ccc4[nH]c(C)cc4c3F)ncnc2cc1OCCCN1CCCC1 [Cediranib] (max concentration tested 1000 nM)
percent inhibition of viability [%]
Conditions	0.1 nM	1 nM	10 nM	100 nM	1000 nM
DERL-7 (IL-2 2.5 ng/mL) [3]	0.36	1.65	5.2	3.45	7.76
IMC-1 (IL-2 20 ng/mL) [7]	-5.84	1.16	-0.8	8.28	17.6
KAI3 (IL-2 2.5 ng/mL) [10]	4.2	-2.39	-4.78	-7.3	2.49
KHYG-1 (IL-2 2.5 ng/mL) [13]	4.26	1.2	0.25	3.56	5.7
NK-92 (IL-2 2.5 ng/mL) [4]	-10.6	3.93	7.82	10.5	25.9
NK-YS (IL-2 2.5 ng/mL) [11]	-2.57	-1.64	-1.64	-2.9	4.62
NKL (IL-2 2.5 ng/mL) [12]	-22.1	-12.6	-8.18	4.3	-2.96
SNK-6 (IL-2 2.5 ng/mL) [8]	-0.01	-5.98	-7.81	1.67	-2.98
YT (IL-2 2.5 ng/mL) [5]	-2.86	-1.1	-1.25	-2.55	7.27
[1]	4.11	-11.2	-8.24	-9.08	-10.8
[2]	-13.7	-14.2	-5.69	-12.7	-3.19
[6]	-4.71	1.73	4.28	-4.99	7
[9]	4.39	-7.82	2.26	-0.33	6.25
[14]	-3.67	-0.35	-1.67	10.2	9.48

Conditions	drug sensitivity score
DERL-7 (IL-2 2.5 ng/mL) [18]	0
IMC-1 (IL-2 20 ng/mL) [22]	1.2
KAI3 (IL-2 2.5 ng/mL) [25]	0
KHYG-1 (IL-2 2.5 ng/mL) [28]	0
NK-92 (IL-2 2.5 ng/mL) [19]	1.88
NK-YS (IL-2 2.5 ng/mL) [26]	0
NKL (IL-2 2.5 ng/mL) [27]	0
SNK-6 (IL-2 2.5 ng/mL) [23]	0
YT (IL-2 2.5 ng/mL) [20]	0
[15]	0.03
[16]	0
[17]	0
[21]	0
[24]	0
